In the NIST ThermoML archive (doi:10.1021/acs.jced.7b00039):
Numbers after ± are expanded uncertainties.

Assay: wn = mass fraction of the nth substance listed
Details: 100 kPa, Liquid; for viscosity: Cone and plate viscometry; for mass density: Vibrating tube method

A viscosity (298 K, w2 = 0) of 1023 ± 120 mPa·s, a viscosity (298 K, w2 = 0.0122) of 952 ± 110 mPa·s and a viscosity (298 K, w2 = 0.0346) of 785 ± 90 mPa·s were found for `CC(CC(C)(C)C)CP(=O)([O-])CC(C)CC(C)(C)C.CCCCCCCCCCCCCC[P+](CCCCCC)(CCCCCC)CCCCCC` + CCCC(=O)O in this work. For the same compound, the viscosity (298 K, w2 = 0.0349) was 787 ± 91 mPa·s, the viscosity (298 K, w2 = 0.0684) was 562 ± 63 mPa·s and the viscosity (298 K, w2 = 0.14) was 348 ± 38 mPa·s. For the same compound, the viscosity (298 K, w2 = 0.242) was 216 ± 23 mPa·s, the viscosity (298 K, w2 = 0.301) was 159 ± 17 mPa·s and the viscosity (298 K, w2 = 0.375) was 92.7 ± 9.6 mPa·s. For the same compound, the viscosity (298 K, w2 = 0.44) was 56.9 ± 5.9 mPa·s, the viscosity (298 K, w2 = 0.491) was 38.8 ± 4 mPa·s and the viscosity (298 K, w2 = 0.715) was 7.55 ± 0.79 mPa·s. The viscosity (298 K, w2 = 0.991) was 1.69 ± 0.17 mPa·s, the mass density (298 K, w2 = 0) was 884.09 ± 9.7 kg/m3 and the mass density (298 K, w2 = 0.0122) was 886.44 ± 9.7 kg/m3. For the same compound, the mass density (298 K, w2 = 0.0346) was 892.23 ± 9.7 kg/m3, the mass density (298 K, w2 = 0.0349) was 889.81 ± 9.6 kg/m3 and the mass density (298 K, w2 = 0.0684) was 893.84 ± 9.6 kg/m3. The mass density (298 K, w2 = 0.14) was 899.77 ± 9.5 kg/m3, the mass density (298 K, w2 = 0.242) was 909.13 ± 9.5 kg/m3 and the mass density (298 K, w2 = 0.301) was 914.05 ± 9.4 kg/m3. It also gave a mass density (298 K, w2 = 0.375) of 919.8 ± 9.4 kg/m3, a mass density (298 K, w2 = 0.44) of 924.13 ± 9.4 kg/m3 and a mass density (298 K, w2 = 0.491) of 927.26 ± 9.4 kg/m3. For the same compound, the mass density (298 K, w2 = 0.715) was 939.25 ± 9.4 kg/m3, the mass density (298 K, w2 = 0.991) was 953.5 ± 9.5 kg/m3 and the viscosity (310 K, w2 = 0) was 521 ± 59 mPa·s. It also gave a viscosity (310 K, w2 = 0.0122) of 465 ± 52 mPa·s, a viscosity (310 K, w2 = 0.0346) of 389 ± 43 mPa·s and a viscosity (310 K, w2 = 0.0349) of 388 ± 43 mPa·s. For the same compound, the viscosity (310 K, w2 = 0.0684) was 278 ± 30 mPa·s, the viscosity (310 K, w2 = 0.14) was 181 ± 19 mPa·s and the viscosity (310 K, w2 = 0.242) was 118 ± 12 mPa·s. For the same compound, the viscosity (310 K, w2 = 0.301) was 87.9 ± 9.1 mPa·s, the viscosity (310 K, w2 = 0.375) was 53.5 ± 5.5 mPa·s and the viscosity (310 K, w2 = 0.44) was 34.4 ± 3.5 mPa·s. For the same compound, the viscosity (310 K, w2 = 0.491) was 24.6 ± 2.5 mPa·s, the viscosity (310 K, w2 = 0.715) was 5.51 ± 0.56 mPa·s and the viscosity (310 K, w2 = 0.991) was 1.39 ± 0.14 mPa·s. It also gave a mass density (310 K, w2 = 0) of 876.93 ± 9.6 kg/m3, a mass density (310 K, w2 = 0.0122) of 879.26 ± 9.6 kg/m3 and a mass density (310 K, w2 = 0.0346) of 884.71 ± 9.6 kg/m3. The mass density (310 K, w2 = 0.0349) was 882.5 ± 9.6 kg/m3, the mass density (310 K, w2 = 0.0684) was 886.39 ± 9.5 kg/m3 and the mass density (310 K, w2 = 0.14) was 892.33 ± 9.4 kg/m3. The mass density (310 K, w2 = 0.242) was 901.49 ± 9.4 kg/m3, the mass density (310 K, w2 = 0.301) was 906.22 ± 9.3 kg/m3 and the mass density (310 K, w2 = 0.375) was 911.62 ± 9.3 kg/m3. For the same compound, the mass density (310 K, w2 = 0.44) was 915.64 ± 9.3 kg/m3, the mass density (310 K, w2 = 0.491) was 918.52 ± 9.3 kg/m3 and the mass density (310 K, w2 = 0.715) was 929.27 ± 9.3 kg/m3. The mass density (310 K, w2 = 0.991) was 941.63 ± 9.4 kg/m3, the viscosity (318 K, w2 = 0) was 345 ± 38 mPa·s and the viscosity (318 K, w2 = 0.0122) was 304 ± 33 mPa·s. For the same compound, the viscosity (318 K, w2 = 0.0346) was 257 ± 28 mPa·s, the viscosity (318 K, w2 = 0.0349) was 255 ± 28 mPa·s and the viscosity (318 K, w2 = 0.0684) was 185 ± 20 mPa·s. For the same compound, the viscosity (318 K, w2 = 0.14) was 123 ± 13 mPa·s, the viscosity (318 K, w2 = 0.242) was 82.2 ± 8.5 mPa·s and the viscosity (318 K, w2 = 0.301) was 62.1 ± 6.4 mPa·s. The viscosity (318 K, w2 = 0.375) was 38.9 ± 4 mPa·s, the viscosity (318 K, w2 = 0.44) was 25.5 ± 2.6 mPa·s and the viscosity (318 K, w2 = 0.491) was 18.8 ± 1.9 mPa·s. The viscosity (318 K, w2 = 0.715) was 4.56 ± 0.47 mPa·s, the viscosity (318 K, w2 = 0.991) was 1.23 ± 0.12 mPa·s and the mass density (318 K, w2 = 0) was 872.2 ± 9.5 kg/m3. It also gave a mass density (318 K, w2 = 0.0122) of 874.5 ± 9.5 kg/m3, a mass density (318 K, w2 = 0.0346) of 879.8 ± 9.5 kg/m3 and a mass density (318 K, w2 = 0.0349) of 877.64 ± 9.5 kg/m3. For the same compound, the mass density (318 K, w2 = 0.0684) was 881.5 ± 9.5 kg/m3, the mass density (318 K, w2 = 0.14) was 887.48 ± 9.4 kg/m3 and the mass density (318 K, w2 = 0.242) was 896.4 ± 9.3 kg/m3. For the same compound, the mass density (318 K, w2 = 0.301) was 901 ± 9.3 kg/m3, the mass density (318 K, w2 = 0.375) was 906.17 ± 9.3 kg/m3 and the mass density (318 K, w2 = 0.44) was 909.99 ± 9.2 kg/m3. It also gave a mass density (318 K, w2 = 0.491) of 912.71 ± 9.2 kg/m3, a mass density (318 K, w2 = 0.715) of 922.63 ± 9.3 kg/m3 and a mass density (318 K, w2 = 0.991) of 933.77 ± 9.3 kg/m3.
